From ChEMBL document CHEMBL3758172, “Design and synthesis of fluorescent and biotin tagged probes for the study of molecular actions of FAF1 inhibitor” (Bioorg Med Chem Lett, 2016) come the findings set out here.

Activity calls are given as the source filed them. No cut-off for these calls is given here.

Test [1] concerns SH-SY5Y. Briefly: Inhibition of ischemic cell death in human SH-SY5Y cells assessed as LDH release at 20 uM pretreated for 30 mins followed by addition of 500 uM H2O2 measured after 6 hrs. Format: functional, cell-based.
Test [2] concerns the target T1, FAS-associated factor 1 (Homo sapiens) (UniProt Q9UNN5).
T1 sequence (whole entry): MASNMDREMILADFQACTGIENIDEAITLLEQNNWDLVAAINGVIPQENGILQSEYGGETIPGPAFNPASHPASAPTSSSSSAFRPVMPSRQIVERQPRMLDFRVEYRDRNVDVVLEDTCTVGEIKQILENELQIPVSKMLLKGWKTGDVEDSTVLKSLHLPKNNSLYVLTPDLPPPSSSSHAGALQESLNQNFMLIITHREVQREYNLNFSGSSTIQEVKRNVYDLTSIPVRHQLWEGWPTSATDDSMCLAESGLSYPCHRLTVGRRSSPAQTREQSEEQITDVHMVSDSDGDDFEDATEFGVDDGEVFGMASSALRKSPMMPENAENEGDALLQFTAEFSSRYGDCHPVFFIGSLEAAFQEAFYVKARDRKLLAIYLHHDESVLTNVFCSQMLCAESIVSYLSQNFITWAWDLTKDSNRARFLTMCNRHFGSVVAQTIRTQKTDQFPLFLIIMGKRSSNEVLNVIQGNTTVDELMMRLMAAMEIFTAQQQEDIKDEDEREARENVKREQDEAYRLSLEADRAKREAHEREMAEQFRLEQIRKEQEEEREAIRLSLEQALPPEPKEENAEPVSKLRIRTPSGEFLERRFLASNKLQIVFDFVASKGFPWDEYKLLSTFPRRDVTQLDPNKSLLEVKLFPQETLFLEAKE
Briefly: Binding affinity to FLAG-tagged FAF1 (unknown origin) expressed in H2O2-treated human SH-SY5Y cells at 100 uM after 12 hrs by immunoblot analysis. Format: cell-based.

The test system of test [3] is SH-SY5Y. Description: Inhibition of ischemic cell death in human SH-SY5Y cells assessed as cell viability pretreated for 30 mins followed by addition of 500 uM H2O2 measured after 6 hrs by MTS assay. Format: functional, cell-based.
The target of test [4] is T1, FAS-associated factor 1 (Homo sapiens). Description: Binding affinity to FLAG-tagged FAF1 (unknown origin) expressed in H2O2-treated human SH-SY5Y cells after 12 hrs by immunoblot analysis. In kind it is cell-based.

In the case of `O=C(CCCC[C@@H]1SC[C@@H]2NC(=O)N[C@@H]21)NCCCCOc1ccc(CCn2cc(NC(=O)CSc3ccc(Br)cc3)c(C(=O)O)n2)cc1`, the inhibition result (in the test with SH-SY5Y [1]; in test [2]; in the test with SH-SY5Y [3]) was “Active” in each case.

On to `CN(C)c1cccc2c(S(=O)(=O)NCCCCOc3ccc(CCn4cc(NC(=O)CSc5ccc(Br)cc5)c(C(=O)O)n4)cc3)cccc12`, for which the inhibition entry (with SH-SY5Y [1]; with SH-SY5Y [3]; in test [4]) was “Active” each time.

For `O=C(CSc1ccc(Br)cc1)Nc1cn(CCc2ccccc2)nc1C(=O)O`, the inhibition result with SH-SY5Y [1] and in the test with SH-SY5Y [3] was “Active” throughout.
